Experimental data reported in the supplement of paper PMC10307832.

Experiments:
Test in all cases: relative viability (nuclei count vs DMSO), 5 days (fraction); higher = more cells survive
[1] = compound: Cc1nc(Nc2ncc(C(=O)Nc3c(C)cccc3Cl)s2)cc(N2CCN(CCO)CC2)n1 [Dasatinib] + CC(=O)c1c(C)c2cnc(Nc3ccc(N4CCNCC4)cn3)nc2n(C2CCCC2)c1=O [Palbociclib] (partner 0.5 µM)
Summary of the method: (§1)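 A single step with final 0.05% Triton X-100, 1% formaldehyde and 1 ug/ml Hoechst fixed the cells and stained nuclei 5 days after treatment. Lung cancer cell lines in 1536-well plates had been treated by pin tool the day after seeding with one drug alone or a fixed anchor-drug dose plus five library-drug doses (not always all listed) in √10 steps, and nuclei were counted on 4× images. Relative viability is the ratio of nuclei in treated wells to nuclei in vehicle wells, taken as the median of duplicate plates.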

[2] = compound: Cc1nc(Nc2ncc(C(=O)Nc3c(C)cccc3Cl)s2)cc(N2CCN(CCO)CC2)n1 [Dasatinib] + Cc1cc(Nc2cc(N3CCN(C)CC3)nc(Sc3ccc(NC(=O)C4CC4)cc3)n2)n[nH]1 [Tozasertib] (partner 0.1 µM)
Summary of the method: as §1

[3] = compound: C1CC1C(=O)NC2=NNC3=C2C=CC(=C3)C4=CC(=CC=C4)C(=O)NC5CC5 [XMD13-2] + CCNC(=O)c1noc(-c2cc(C(C)C)c(O)cc2O)c1-c1ccc(CN2CCOCC2)cc1 [Luminespib] (partner 0.01 µM)
Summary of the method: as §1

[4] = compound: Cc1ccc(C(=O)Nc2cccc(C(F)(F)F)c2)cc1Nc1cncc(C(N)=O)c1 [ALW-II-49-7] + CS(=O)(=O)CCNCc1ccc(-c2ccc3ncnc(Nc4ccc(OCc5cccc(F)c5)c(Cl)c4)c3c2)o1 [Lapatinib] (partner 2 µM)
Summary of the method: as §1

Cell Line	relative viability ([1]; first compound 0.005 µM)	relative viability ([1]; first compound 0.01581 µM)	relative viability ([1]; first compound 0.05 µM)	relative viability ([1]; first compound 0.1581 µM)	relative viability ([1]; first compound 0.5 µM)	relative viability ([2]; first compound 0.005 µM)	relative viability ([2]; first compound 0.01581 µM)	relative viability ([2]; first compound 0.05 µM)	relative viability ([2]; first compound 0.1581 µM)	relative viability ([2]; first compound 0.5 µM)	relative viability ([3]; first compound 0.05 µM)	relative viability ([3]; first compound 0.1581 µM)	relative viability ([3]; first compound 0.5 µM)	relative viability ([3]; first compound 1.581 µM)	relative viability ([3]; first compound 5 µM)	relative viability ([4]; first compound 0.08 µM)	relative viability ([4]; first compound 0.253 µM)	relative viability ([4]; first compound 0.8 µM)	relative viability ([4]; first compound 2.53 µM)	relative viability ([4]; first compound 8 µM)
PC-14	0.561	0.502	0.427	0.221	0.0393	0.54	0.583	0.514	0.667	0.227	0.133	0.192	0.118	0.151	0.154	0.286	0.303	0.308	0.331	0.292
NCI-H2087	0.223	0.206	0.238	0.184	0.142	0.289	0.21	0.246	0.185	0.113	0.164	0.159	0.217	0.198	0.152	0.976	1.07	0.839	1.15	1.01
HOP-62	0.391	0.381	0.506	0.431	0.182	0.387	0.372	0.393	0.315	0.242	1	0.878	0.925	0.881	0.938	1.17	1.24	1.1	0.806	0.639
EKVX	0.412	0.319	0.332	0.199	0.13	0.372	0.279	0.303	0.214	0.119	0.978	0.887	0.982	0.906	0.738	0.194	0.188	0.173	0.127	0.188
EMC-BAC-2	0.507	0.424	0.417	0.319	0.243	0.271	0.205	0.226	0.179	0.164	1.36	1.1	1.05	1.14	1.04	0.829	0.812	0.888	0.937	0.814
HARA	0.303	0.243	0.155	0.177	0.114	0.119	0.133	0.0917	0.0528	0.0523	0.995	0.654	0.779	0.772	0.707	0.675	0.689	0.87	0.964	0.866
LU99A	0.354	0.379	0.379	0.308	0.2	0.233		0.243	0.209	0.23	0.262	0.295	0.254	0.178	0.267	1.03	0.919	0.739	1.12	0.999
NCI-H1944	0.315	0.242	0.249	0.119	0.111	0.259	0.223	0.201	0.111	0.104	0.797	0.756	0.758	0.899	0.697	0.82	0.915	0.843	0.889	0.623
LK-2	0.583		0.41	0.217	0.223	0.16	0.15	0.141	0.173	0.148	0.181	0.17	0.179	0.205	0.172	1.01	0.778	0.919	0.567	0.825
NCI-H23	0.536	0.476	0.38	0.34	0.271	0.318	0.309	0.347	0.302	0.318	0.222	0.2	0.21	0.204	0.21	0.88	1.1	1.35	1.02	1.01
NCI-H647	0.314	0.22	0.162	0.0968	0.0812	0.265	0.288	0.128	0.0973	0.0474	0.183	0.289	0.183	0.229	0.147	0.779	0.772	1.18	0.806	0.855
201T	0.341	0.306	0.311	0.296	0.237	0.877	0.746	0.751	0.606	0.425	1.03	1.03	1.11	1.01	1.12	1.08	1.1	1.05	1.03	0.903
NCI-H1734	0.328	0.285	0.295	0.208	0.2	0.26	0.285	0.235	0.165	0.181	0.259	0.179	0.179	0.192	0.177	1.07	1.07	1.05	1.04	0.898
